{
  "source": "ChEMBL document CHEMBL5257019",
  "about": "“An Overview of Severe Acute Respiratory Syndrome-Coronavirus (SARS-CoV) 3CL Protease Inhibitors: Peptidomimetics and Small Molecule Chemotherapy” (J Med Chem, 2016)",
  "key": {"[1]": {"biological_target": "T1, Replicase polyprotein 1ab (Severe acute respiratory syndrome coronavirus 2, UniProt P0DTD1)", "assay": "Inhibition of SARS-CoV-2 3CL protease using Dabcyl-Leu-Ala-Gln-Ala-Val-Arg-Ser-Ser-Ser-Arg-Edans as substrate"}, "[2]": {"assay": "Inhibition of SARS-CoV 3CL protease using 2-aminobenzoyl-SVTLQSG-Tyr(NO2)-R as substrate", "parameters": "species or system Severe acute respiratory syndrome-related coronavirus"}, "[3]": {"biological_target": "Replicase polyprotein 1ab (Severe acute respiratory syndrome coronavirus 2) (UniProt P0DTD1)", "assay": "Inhibition of SARS-CoV-2 3CL protease at 100 uM relative to control"}, "[4]": {"biological_target": "T1, Replicase polyprotein 1ab", "assay": "Inhibition of SARS-CoV-2 3CL protease using 2-aminobenzoyl-SVTLQSG-Tyr(NO2)-R as substrate"}, "[5]": {"biological_target": "T1, Replicase polyprotein 1ab", "assay": "Inhibition of N terminal his tagged SARS-CoV-2 3CL protease by FRET assay"}, "Cytochrome P450 2D6": {"biological_target": "Cytochrome P450 2D6 (Homo sapiens, UniProt P10635)", "sequence (P10635 whole entry)": "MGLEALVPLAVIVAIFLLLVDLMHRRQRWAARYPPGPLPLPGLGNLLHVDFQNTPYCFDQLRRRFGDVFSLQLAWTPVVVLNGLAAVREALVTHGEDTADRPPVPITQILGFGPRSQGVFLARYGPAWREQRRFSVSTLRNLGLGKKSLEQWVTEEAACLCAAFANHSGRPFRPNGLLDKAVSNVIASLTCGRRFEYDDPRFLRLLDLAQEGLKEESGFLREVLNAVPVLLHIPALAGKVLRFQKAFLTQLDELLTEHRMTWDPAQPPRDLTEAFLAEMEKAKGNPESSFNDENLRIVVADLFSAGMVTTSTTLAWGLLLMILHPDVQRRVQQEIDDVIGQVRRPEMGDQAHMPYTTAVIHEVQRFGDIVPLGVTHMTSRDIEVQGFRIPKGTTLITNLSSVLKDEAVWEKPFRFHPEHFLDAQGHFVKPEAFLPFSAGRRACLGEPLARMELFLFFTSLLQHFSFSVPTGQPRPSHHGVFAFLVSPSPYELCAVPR", "assay": "Inhibition of CYP2D6 (unknown origin)", "format": "ADME"}, "Cytochrome P450 2C9": {"biological_target": "Cytochrome P450 2C9 (Homo sapiens, UniProt P11712)", "sequence (P11712 whole entry)": "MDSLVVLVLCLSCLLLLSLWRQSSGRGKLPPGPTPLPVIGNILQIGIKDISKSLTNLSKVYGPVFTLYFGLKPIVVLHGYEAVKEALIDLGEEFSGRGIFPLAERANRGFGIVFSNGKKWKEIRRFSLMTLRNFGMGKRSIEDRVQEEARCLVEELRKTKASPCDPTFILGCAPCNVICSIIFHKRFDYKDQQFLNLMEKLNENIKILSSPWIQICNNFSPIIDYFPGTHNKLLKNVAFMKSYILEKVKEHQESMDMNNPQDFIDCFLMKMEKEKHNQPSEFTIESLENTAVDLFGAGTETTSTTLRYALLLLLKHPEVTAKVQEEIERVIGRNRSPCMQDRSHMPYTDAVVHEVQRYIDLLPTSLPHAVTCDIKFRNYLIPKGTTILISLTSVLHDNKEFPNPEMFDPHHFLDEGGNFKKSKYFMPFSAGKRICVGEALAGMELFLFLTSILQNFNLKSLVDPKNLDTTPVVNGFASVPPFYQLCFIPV", "assay": "Inhibition of CYP2C9 (unknown origin)", "format": "ADME"}, "Cytochrome P450 1A2": {"biological_target": "T2, Cytochrome P450 1A2 (Homo sapiens, UniProt P05177)", "T2 sequence (P05177 whole entry)": "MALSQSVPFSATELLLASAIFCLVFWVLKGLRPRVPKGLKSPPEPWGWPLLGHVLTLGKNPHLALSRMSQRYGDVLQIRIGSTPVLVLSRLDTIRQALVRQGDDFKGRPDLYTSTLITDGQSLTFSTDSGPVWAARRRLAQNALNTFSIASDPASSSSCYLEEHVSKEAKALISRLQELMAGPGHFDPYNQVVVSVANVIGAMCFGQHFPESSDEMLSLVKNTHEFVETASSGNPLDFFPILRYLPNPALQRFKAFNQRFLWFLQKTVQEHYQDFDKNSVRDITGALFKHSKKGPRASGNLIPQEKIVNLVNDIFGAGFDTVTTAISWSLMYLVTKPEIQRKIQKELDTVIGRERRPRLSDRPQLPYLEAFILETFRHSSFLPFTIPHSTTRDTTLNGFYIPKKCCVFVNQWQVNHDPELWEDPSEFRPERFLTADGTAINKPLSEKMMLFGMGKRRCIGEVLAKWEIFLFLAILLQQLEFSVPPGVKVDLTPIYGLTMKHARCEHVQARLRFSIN", "assay": "Inhibition of CYP1A2 (unknown origin)", "format": "ADME"}, "[6]": {"assay": "Plasma protein binding in human assessed as unbound fraction", "format": "ADME"}, "[7]": {"assay": "Plasma protein binding in rat assessed as unbound fraction", "format": "ADME"}, "[8]": {"biological_target": "T1, Replicase polyprotein 1ab", "assay": "Inhibition of SARS-CoV-2 3CL protease using Dabcyl-KTSAVLQSGFRKME-Edans as substrate assessed as inhibition constant by flurogenic assay"}, "Cytochrome P450 3A4": {"biological_target": "Cytochrome P450 3A4 (Homo sapiens, UniProt P08684)", "sequence (P08684 whole entry)": "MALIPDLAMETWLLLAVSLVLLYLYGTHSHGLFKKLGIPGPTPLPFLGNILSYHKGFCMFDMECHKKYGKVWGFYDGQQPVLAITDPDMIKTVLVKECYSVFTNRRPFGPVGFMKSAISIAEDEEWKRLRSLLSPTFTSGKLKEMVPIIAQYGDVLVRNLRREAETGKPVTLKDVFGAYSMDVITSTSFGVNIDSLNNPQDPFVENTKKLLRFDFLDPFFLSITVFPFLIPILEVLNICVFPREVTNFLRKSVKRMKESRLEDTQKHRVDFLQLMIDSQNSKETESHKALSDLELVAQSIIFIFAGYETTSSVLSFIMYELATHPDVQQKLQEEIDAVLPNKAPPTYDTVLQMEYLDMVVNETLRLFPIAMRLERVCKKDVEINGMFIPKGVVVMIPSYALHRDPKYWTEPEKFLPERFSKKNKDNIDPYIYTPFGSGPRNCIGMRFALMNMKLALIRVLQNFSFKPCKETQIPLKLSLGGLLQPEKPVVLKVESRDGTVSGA", "assay": "Inhibition of CYP3A4 (unknown origin)", "format": "ADME"}, "[9]": {"biological_target": "T1, Replicase polyprotein 1ab", "assay": "Inhibition of SARS-CoV-2 3CL protease by FRET assay"}, "[10]": {"biological_target": "Replicase polyprotein 1ab (Severe acute respiratory syndrome coronavirus 2) (UniProt P0DTD1)", "assay": "Inhibition of SARS-CoV-2 3CL protease assessed as ratio of Kinact/Ki"}},
  "data": [
    {"smiles": "O=C(O)c1ccc(/N=C/c2c(O)ccc3c2C2CCCCC2O3)cc1", "note": "(stereo not drawn)", "values": [
      {"measurement": "EC50", "setting": "[1]", "value": 23, "unit": "µM"}
    ]},
    {"smiles": "OCC1C(COCc2ccccc2)CC1n1cnc2c(Cl)ncnc21", "note": "(stereo not drawn)", "values": [
      {"measurement": "IC50", "setting": "[2]", "value": 14.5, "unit": "µM"}
    ]},
    {"smiles": "CC(=O)N[C@H](C(=O)N[C@H](C(=O)N[C@@H](CC(C)C)C(=O)N[C@@H](Cc1ccccc1)C(=O)Cn1[nH]c(=O)c2ccccc2c1=O)[C@@H](C)OCc1ccccc1)C(C)C", "values": [
      {"measurement": "inhibition", "setting": "[3]", "value": 72, "unit": "%"}
    ]},
    {"smiles": "Cc1cc2cc(CN(CCc3ccccc3C)C(=O)NCc3ccccc3)c(=O)[nH]c2cc1C", "values": [
      {"measurement": "IC50", "setting": "[4]", "value": 17.2, "unit": "µM"}
    ]},
    {"smiles": "O=C(CSc1nc(C2CCCCC2)nc2ccccc12)NCc1ccco1", "values": [
      {"measurement": "IC50", "setting": "[4]", "value": 18.2, "unit": "µM"}
    ]},
    {"smiles": "CC(=O)N[C@H](C(=O)N[C@H](C(=O)N[C@@H](CC(C)C)C(=O)N[C@@H](C[C@@H]1CCNC1=O)C(=O)c1cccs1)[C@@H](C)O)C(C)C", "values": [
      {"measurement": "inhibition", "setting": "[3]", "value": 23, "unit": "%"}
    ]},
    {"smiles": "O=C(Oc1cncc(Cl)c1)c1cccs1", "values": [
      {"measurement": "IC50", "setting": "[5]", "value": 500, "unit": "nM"}
    ]},
    {"smiles": "CC(C)(C)NC(=O)C(c1cccnc1)N(C(=O)c1ccco1)c1ccc(C(C)(C)C)cc1", "note": "(stereo not drawn)", "values": [
      {"measurement": "IC50", "setting": "Cytochrome P450 2D6", "value": "> 30", "unit": "µM"},
      {"measurement": "IC50", "setting": "Cytochrome P450 2C9", "value": 9.1, "unit": "µM"},
      {"measurement": "IC50", "setting": "Cytochrome P450 1A2", "value": "> 30", "unit": "µM"},
      {"measurement": "fraction unbound", "setting": "[6]", "value": 0.033},
      {"measurement": "fraction unbound", "setting": "[7]", "value": 0.026}
    ]},
    {"smiles": "O=C(On1nnc2ccccc21)c1ccc2[nH]ccc2c1", "values": [
      {"measurement": "Ki", "setting": "[8]", "value": 7.5, "unit": "nM"}
    ]},
    {"smiles": "COC(=O)c1cc2c(O)cc(C(F)(F)F)cc2o1", "values": [
      {"measurement": "IC50", "setting": "[4]", "value": 4.3, "unit": "µM"}
    ]},
    {"smiles": "O=C(Oc1cncc(Cl)c1)c1cc2ccccc2[nH]1", "values": [
      {"measurement": "IC50", "setting": "[5]", "value": 65, "unit": "nM"}
    ]},
    {"smiles": "Cn1ccc(CN(C(=O)Cn2nnc3ccccc32)c2ccc(NC(=O)C3CC3)cc2)c1", "values": [
      {"measurement": "IC50", "setting": "Cytochrome P450 2D6", "value": 8.4, "unit": "µM"},
      {"measurement": "IC50", "setting": "Cytochrome P450 3A4", "value": 4.6, "unit": "µM"},
      {"measurement": "IC50", "setting": "Cytochrome P450 2C9", "value": 7.2, "unit": "µM"},
      {"measurement": "IC50", "setting": "Cytochrome P450 1A2", "value": 7.7, "unit": "µM"},
      {"measurement": "fraction unbound", "setting": "[6]", "value": 0.048},
      {"measurement": "fraction unbound", "setting": "[7]", "value": 0.106}
    ]},
    {"smiles": "O=c1c(OC[C@H]2O[C@@H](O)[C@H](O)[C@@H](O)[C@H]2O)c(-c2ccc(O)c(O)c2)oc2cc(O)cc(O)c12", "values": [
      {"measurement": "IC50", "setting": "[9]", "value": 42.8, "unit": "µM"}
    ]},
    {"smiles": "CCOC(=O)[C@@H]1OC1C(=O)N(CCC(N)=O)NC(=O)[C@H](Cc1ccccc1)NC(=O)[C@H](CC(C)C)NC(=O)OCc1ccccc1", "note": "(stereo partly drawn)", "values": [
      {"measurement": "Ratio", "setting": "[10]", "value": 1900, "unit": "M/s"}
    ]}
  ]
}
